Columns and labels:
[1] = system: HBL-100 human breast cancer cells; experiment: In vitro cytotoxicity, MTT dye uptake; assay type: cell-based; conditions: 72 h, HBL-100 cells, 3 days incubation, DOX equivalent
Procedure: (§1) HBL-100, a human breast cancer cell-line, was maintained in culture in high glucose D-MEM (Dulbecco's Modified Eagle Medium), which was supplemented with 10% γ-irradiated fetal bovine serum (FBS) and 1% sodium pyruvate; SK-OV-3, a human ovarian cancer cell-line was cultured in D-MEM/F12+10% FBS; HCT-116, a colon tumor cell-line, was maintained in culture in α-MEM (Minimal Essential Medium, Eagle)+10% FBS. 4T1 mouse breast cancer cells and TSU human bladder cancer cells were cultured with 10% calf serum-90% Dulbecco's modified Eagle's medium (DMEM) at 37° C. in 5% CO2 incubator.
(§2) All ^1H NMR spectral data were obtained using an NR-200 FT-NMR spectrometer at 200 MHz (IBM Instruments Inc.). UV-Vis spectra were recorded on a Hewlett Packard 8453 UV-Vis diode array spectrophotometer (Palo Alto, Calif.). HA was characterized by gel permeation chromatography (GPC) was on the following system: Waters 515 HPLC pump, Waters 410 differential refractometer, and Waters™ 486 tunable absorbance detector, Waters Ultrahydrogel 250 and 2000 columns (7.8 mm ID×30 cm) (Milford, Mass.) were used for GPC analysis, the eluent was 150 mM pH 6.5 phosphate buffer/MeOH=80:20 (v/v), and the flow rate was 0.5 in L/min. The system was calibrated with HA standards supplied by Dr. O. Wik (Pharmacia). […] Cell viability in cell culture was determined by thiazoyl blue (MTT) dye uptake protocols measured at 540 nm, which was recorded on a BIO-RAD M-450 microplate reader (Hercules, Calif.). […] Fluorescence images were taken using FITC settings with the 488 nm excitation line and a 522 nm 32 bandpass filter was used to collect the images.
(§3) The cytotoxicity of HA-DOX and HPMA-HA-DOX conjugates against HBL-100, SKOV-3 and HCT-116 cells was determined using a 96-well plate format in quadruplicate with increasing doses range from 0.001-10 mg/mL of DOX equivalent. […] Thus, a 2-μL aliquot of the stock solution was added to each well, and cells were continuously incubated at 37° C., 5% CO2 for 3 days with the test substance, and cell viability was determined using MTT dye uptake at 540 nm. […]

[2] = system: HCT-116 human colon cancer cells; experiment: In vitro cytotoxicity, MTT dye uptake; assay type: cell-based; conditions: 72 h, HCT-116 cells, 3 days incubation, DOX equivalent
Procedure: as §1, §2, §3

[3] = system: SK-OV-3 human ovarian cancer cells; experiment: In vitro cytotoxicity, MTT dye uptake; assay type: cell-based; conditions: 72 h, SK-OV-3 cells, 3 days incubation, DOX equivalent
Procedure: as §1, §2, §3

[4] = system: human prostate cancer cell-line DU-145; experiment: In vitro cytotoxicity against prostate cancer cell line; assay type: cell-based; conditions: DU-145 cells, DOX equivalent
Source text: The in vitro cytotoxicity of HPMA-HA-DOX with 17% and 36% HA loading against cultured prostate cancer cell line DU-145 was examined. FIG. 8 depicts the in vitro cytotoxicity results of the HPMA-HA-DOX bioconjugates. The cytotoxicity of targeted HPMA-HA-DOX bioconjugates were dramatically higher than non-targeted HPMA-DOX conjugate (Table 2), and 8- to 12-fold higher than the free DOX drug against this prostate cancer cell-line.

4T1 cells = experiment: HA degradation assay; assay type: cell-based, mouse
Procedure: (§4) The assay was carried out as described (CBU) with some modification. […] In some wells, the media contained 200 μg/ml of KM201 (a neutralization antibody against CD44) or 0.1 mM of chloroquine (an inhibitor of lysosomal enzymes). The media were collected, which contained some of the released and degraded ^3H-HA. […] The media and the supernatant from cells were centrifuged with Centricon 30 (Amicon, Danvers, Mass.). The un-degraded high MW ^3H-HA was retained in the upper chamber.
(§5) This mixture was then separated by filter membrane with MW cut of 30,000 Dalton.
CD44 was examined to determine if it was expressed by 4T1 cells and if it could interact with HA. First, CD44 was detected by Western blotting. […] The binding was specific as it could be inhibited by excess of cold HA (FIG. 14B).

TSU cells = experiment: HA degradation assay; assay type: cell-based, human; conditions: 48 hours, KM201 200 μg/ml or chloroquine 0.1 mM
Procedure: as §4, §5

[5] = system: 4T1 mouse breast cancer cells; experiment: In vivo anti-tumor effect, 4T1 tumor model in BABL/c mice; conditions: 4 mg/kg Taxol or equivalent, i.p. every other day; versus vehicle and Taxol alone
Procedure: The 4T1 mouse breast cancer cells (10^6/site) were subcutaneously injected into either BABL/c mice and allowed to grow for 2 days for the tumor to be established. […] The injection was carried out every other day for two to four weeks. The tumor sizes were measured twice a week. At the end of experiment, the mice were sacrificed and the tumor were harvested, photographed and weighted.

4T1 tumors = experiment: Chondroitin sulfate blocking study, survival of mice bearing 4T1 tumors; assay type: in vivo, mouse; conditions: experiment period of 33 days; ten i.p. injections every other day
Procedure: This procedure was carried out every other day for 20 days, and mice received a total of ten injections. The mice were recorded for their survival days and the survival rate was calculated.
This procedure was carried out every other day for 20 days, and mice received a total of ten injections. The mice were recorded for their survival during a 33 day experimental period s and the survival rate was calculated.

4T1 breast cancer cells = experiment: Spontaneous lymph node metastasis of 4T1 cells injected into foot pad; assay type: in vivo, mouse; conditions: for Weight of lymph node: s.c. three times a week for three weeks, 4 mg/kg Taxol equivalent
Procedure: The 4T1 breast cancer cells were injected into foot pat of syngenic BABL/c mice. […] About 0.2 ml of above agents were administrated by subcutaneous (s.c.) injection at the middle of leg three times a week, from where HA-drug could be drained/absorbed into popliteal and inguinal lymph path, in which the spontaneous metastases were expected to take place.
The lymph nodes were carefully dissected out from surrounding fat, measured for the weights and processed for pathology.

[6] = system: HA binding sites in the major organs; experiment: Chondroitin sulfate pretreatment, organ and tumor up-take of 3H-HA; assay type: in vivo, mouse
Procedure: The tumors and organs were collected, weighted, and homogenized with ultrasound to make tissue homogenates. The protein concentration was normalized to 0.1 mg/ml. Then, 300 μl of tissue homogenates were mixed with 2.5 ml of scintillation solution and counted for the radioactivity. […] Twenty-four hours later, the mice were sacrificed and the homogenates of tumors and organs were counted for the radioactivity.
This approach did reduce the HA taken up by liver and increased the amount of HA accumulated in tumors.
One day later, the tumors and organs were collected, weighed, homogenized with ultrasound to make tissue lysate at a protein concentration of 0.1 mg/ml. Then, 300 μl of tissue lysate were mixed with 2.5 ml of scintillation solution and counted for the radioactivity.

## COc1cccc2c1C(=O)c1c(O)c3c(c(O)c1C2=O)C[C@@](O)(C(=O)CO)C[C@@H]3O[C@H]1C[C@H](N)[C@H](O)[C@H](C)O1 [DOX, Doxorubicin]
[1]
  IC50: 0.15 µM
[2]
  IC50: 0.35 µM
[3]
  IC50: 0.92 µM
[4]
  IC50: 31.5 µM

## CCN(CC)CCCC(C)Nc1ccnc2cc(Cl)ccc12 (stereo not shown) [chloroquine]
4T1 cells; 48 hours, KM201 200 μg/ml or chloroquine 0.1 mM
  degradation of high MW 3H-HA by cells: reduce the degraded ^3H-HA
4T1 cells; 72 hours
  CD44 mediated degradation of 3H-HA: inhibited
TSU cells
  degradation of high MW 3H-HA by cells: reduce the degraded ^3H-HA

## CC(=O)O[C@H]1C(=O)[C@@]2(C)[C@H]([C@H](OC(=O)c3ccccc3)[C@]3(O)C[C@H](OC(=O)[C@H](O)[C@@H](NC(=O)c4ccccc4)c4ccccc4)C(C)=C1C3(C)C)[C@]1(OC(C)=O)CO[C@@H]1C[C@@H]2O [Taxol]
[5]
  size of 4T1 tumors: did not reduce the size
4T1 tumors
  survival rate: 60%
4T1 breast cancer cells; inguinal lymph node metastasis
  Inhibition ratio (%): 31.8%
4T1 breast cancer cells; inguinal lymph node
  Weight of lymph node: 9.00 ± 0.79
4T1 breast cancer cells; popliteal lymph node metastasis
  Inhibition ratio (%): −1.7%
4T1 breast cancer cells; popliteal lymph node
  Weight of lymph node: 46.70 ± 5.05

## chondroitin sulfate
[6]; chondroitin sulfate i.v. two hours before 3H-HA, 24 hours
  up-take of HA in the major organs: reduced their up-take of HA
[6]; chondroitin sulfate pretreatment
  3H-HA in tumors versus untreated mice: higher
[6]; liver monitored for two days
  amount of 3H-HA in the liver versus vehicle alone: much lower
